Data taken from PubChem BioAssay (NCI).
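Interpolation was linear, between the two tested concentrations surrounding the appropriate level; five concentrations were tested over 48 hours in 96-well plates. Definition used: TGI = concentration required for complete inhibition of growth.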

Assays:
Assay in all cases: NCI tumour cell line growth inhibition, 48 h
MALME-3M melanoma = system: MALME-3M melanoma
SK-MEL-5 melanoma = system: SK-MEL-5 melanoma
OVCAR-4 ovarian = system: OVCAR-4 ovarian
OVCAR-3 ovarian = system: OVCAR-3 ovarian
SK-MEL-2 melanoma = system: SK-MEL-2 melanoma
DMS 114 small cell lung = system: DMS 114 small cell lung
OVCAR-5 ovarian = system: OVCAR-5 ovarian
SK-OV-3 ovarian = system: SK-OV-3 ovarian
TK-10 renal = system: TK-10 renal
M14 melanoma = system: M14 melanoma
EKVX NSCLC = system: EKVX NSCLC
SW-620 colon = system: SW-620 colon
HOP-92 NSCLC = system: HOP-92 NSCLC
A549 NSCLC = system: A549 NSCLC
PC-3 prostate = system: PC-3 prostate
NCI/ADR-RES ovarian = system: NCI/ADR-RES ovarian
MDA-N = system: MDA-N
T-47D breast = system: T-47D breast
RXF 393 renal = system: RXF 393 renal
HS 578T breast = system: HS 578T breast

Measured: TGI

Cc1ccc(S(=O)(=O)c2c3[nH]c4ccccc4nc3n3c2nc2ccccc23)cc1
not listed: PC-3 prostate | NCI/ADR-RES ovarian | MDA-N | T-47D breast | RXF 393 renal | HS 578T breast
> 100 µM: all other assays above

Clc1ccc(-c2nc3ccc(C45CC6CC(CC(C6)C4)C5)cc3[nH]2)cc1
> 95.3 µM: HOP-92 NSCLC
98.9 µM: TK-10 renal
60.4 µM: SK-MEL-5 melanoma
not listed: DMS 114 small cell lung
> 100 µM: all other assays above

COC(=O)C1(C)CCCC2(C)C3CCC4CC3(C=C4CO)CCC12 (centres undefined)
75.5 µM: NCI/ADR-RES ovarian
not listed: DMS 114 small cell lung
> 100 µM: all other assays above

CCN(CC)c1cccc2c1C1(O)CCC3(CC21)OCCCCO3 (centres undefined)
53.6 µM: RXF 393 renal
not listed: EKVX NSCLC | HOP-92 NSCLC | PC-3 prostate | NCI/ADR-RES ovarian | MDA-N | T-47D breast | HS 578T breast
> 100 µM: all other assays above

COC(=O)/C=C(/C(=O)OC)c1c(C)cc2c(C)cc(C)cc(C)c1-2
51.1 µM: HS 578T breast
98.6 µM: PC-3 prostate
> 64.6 µM: NCI/ADR-RES ovarian
35.1 µM: M14 melanoma
99.5 µM: SK-OV-3 ovarian
38.3 µM: OVCAR-3 ovarian
23.5 µM: SK-MEL-5 melanoma
> 65.5 µM: MALME-3M melanoma
> 95.3 µM: EKVX NSCLC
> 83.3 µM: TK-10 renal
> 84.5 µM: A549 NSCLC
> 77.1 µM: SK-MEL-2 melanoma
> 78.8 µM: OVCAR-5 ovarian
5.16 µM: MDA-N
49.2 µM: RXF 393 renal
not listed: DMS 114 small cell lung
> 100 µM: all other assays above

CC(=O)N1C2=CCCC2(C)c2ccccc21 (centres undefined)
not listed: DMS 114 small cell lung
> 100 µM: all other assays above

[O-]c1c[n+](CC[n+]2cc([O-])on2)no1
not listed: DMS 114 small cell lung
> 100 µM: all other assays above

Cc1cc(-c2nc3cc(O)ccc3s2)ccc1N
48 µM: SK-MEL-5 melanoma
72.3 µM: T-47D breast
67.3 µM: OVCAR-3 ovarian
60.1 µM: EKVX NSCLC
77.1 µM: SK-OV-3 ovarian
52.4 µM: M14 melanoma
74.4 µM: SK-MEL-2 melanoma
75.5 µM: OVCAR-5 ovarian
not listed: DMS 114 small cell lung
> 100 µM: all other assays above

O=C1c2ccccc2-c2c1c(-c1ccccc1)c1n2C2(C(=O)c3ccccc3C2=O)C2C(=O)N(c3ccccc3)C(=O)C12 (centres undefined)
51.1 µM: OVCAR-3 ovarian
51.4 µM: SK-MEL-2 melanoma
63.7 µM: HS 578T breast
35.3 µM: SK-MEL-5 melanoma
81.6 µM: PC-3 prostate
51.9 µM: MALME-3M melanoma
65.3 µM: MDA-N
41.5 µM: RXF 393 renal
73.7 µM: HOP-92 NSCLC
65.7 µM: T-47D breast
not listed: DMS 114 small cell lung
> 100 µM: all other assays above

COC(=O)c1c(O)ccc2c1c1c(n2-c2ccc(OC)cc2)C(=O)c2ccccc2C1=O
46.4 µM: HS 578T breast
39.2 µM: SK-OV-3 ovarian
25.7 µM: RXF 393 renal
66.2 µM: T-47D breast
38.2 µM: OVCAR-4 ovarian
74.1 µM: PC-3 prostate
36.7 µM: HOP-92 NSCLC
75.4 µM: OVCAR-5 ovarian
48 µM: NCI/ADR-RES ovarian
39.6 µM: EKVX NSCLC
65.2 µM: OVCAR-3 ovarian
58.4 µM: MALME-3M melanoma
32.2 µM: A549 NSCLC
39.5 µM: TK-10 renal
not listed: DMS 114 small cell lung
> 100 µM: all other assays above

CC1CC(C)(O)CC(C(O)CC2CC(=O)NC(=O)C2)C1=O (centres undefined)
1.05 µM: RXF 393 renal
5.87 µM: NCI/ADR-RES ovarian
0.87 µM: OVCAR-4 ovarian
2.68 µM: SK-MEL-2 melanoma
7.19 µM: A549 NSCLC
3.43 µM: OVCAR-3 ovarian
1.53 µM: SW-620 colon
2.45 µM: SK-OV-3 ovarian
3.18 µM: T-47D breast
3.99 µM: TK-10 renal
3.45 µM: EKVX NSCLC
0.316 µM: HS 578T breast
0.625 µM: HOP-92 NSCLC
0.195 µM: SK-MEL-5 melanoma
9.21 µM: OVCAR-5 ovarian
1.16 µM: MDA-N
0.551 µM: M14 melanoma
6.44 µM: MALME-3M melanoma
5.63 µM: PC-3 prostate

CC(C)c1ccc2[nH]c(O)c(C3=Nc4ccccc4C3=O)c2c1
85.3 µM: HS 578T breast
53.8 µM: OVCAR-3 ovarian | SK-MEL-2 melanoma
54.8 µM: PC-3 prostate
54.2 µM: TK-10 renal
23.4 µM: HOP-92 NSCLC
6.71 µM: RXF 393 renal
42.8 µM: EKVX NSCLC
12.8 µM: OVCAR-4 ovarian
30.2 µM: SK-OV-3 ovarian
17.2 µM: T-47D breast
not listed: DMS 114 small cell lung
> 100 µM: all other assays above

COC(=O)CCC(C)C1CCC2C3CCC4CC5CCC4(C)C3(O5)C(Br)C(Br)C12C (centres undefined)
not listed: DMS 114 small cell lung
> 100 µM: all other assays above

CCOC(=O)C(=CNC(=S)Nc1c(CC)cccc1CC)C(=O)OCC
not listed: DMS 114 small cell lung
> 100 µM: all other assays above

O=C(OC(/C=C/c1ccccc1)P1(=O)N(Cc2ccccc2)[C@@H]2CCCC[C@H]2N1Cc1ccccc1)c1ccccc1 (some centres undefined)
8.08 µM: HOP-92 NSCLC
5.67 µM: SK-MEL-2 melanoma
11.4 µM: SK-MEL-5 melanoma
> 75.5 µM: MALME-3M melanoma
not listed: DMS 114 small cell lung
> 100 µM: all other assays above

CCOC(=O)c1nc2ccccc2nc1Oc1ccc(OC)cc1
not listed: DMS 114 small cell lung
> 100 µM: all other assays above

O/N=C1\CCc2cc3c(cc21)CCC3
not listed: DMS 114 small cell lung
> 100 µM: all other assays above

Nc1ncc(CN2CCOCC2)c(-c2ccccc2O)n1
not listed: DMS 114 small cell lung
> 100 µM: all other assays above

Fc1ccc(Nc2nnc(-c3ccccn3)s2)cc1
not listed: DMS 114 small cell lung
> 100 µM: all other assays above

COc1ccc(/C=C2\CN(C)CC3C2=NC(=S)NC3c2ccc(OC)cc2)cc1 (centres undefined)
7.49 µM: RXF 393 renal
> 70.8 µM: OVCAR-4 ovarian
10.3 µM: OVCAR-3 ovarian
> 86 µM: OVCAR-5 ovarian
19.1 µM: NCI/ADR-RES ovarian
15.8 µM: M14 melanoma
> 64.8 µM: SK-MEL-2 melanoma
> 50 µM: PC-3 prostate
3.74 µM: MDA-N
> 31.4 µM: MALME-3M melanoma
> 29.9 µM: T-47D breast
94.3 µM: HOP-92 NSCLC
not listed: DMS 114 small cell lung
> 100 µM: all other assays above
